Laboratory results from patent publication US20050186658A1, “Chimeric metabotropic glutamate receptors and uses thereof” (NPS Pharmaceuticals, Inc., priority 2003, published 2005).

Experiments:
CaSPhmGluR3(27-33) = molecular target: T1, CaSPhmGluR3(27-33) (Homo sapiens, UniProt Q14832); experiment: oocyte assay for Gαi-coupled receptors (GIRK1/GIRK4 co-injection, voltage clamp); format: cell-based; conditions: 100 uM L-glutamate; Xenopus oocytes; FIG. 5
T1 construct: CaR signal peptide (first 27 amino acids of CaR) (N); expressed in transfected cells; host or cells: Xenopus laevis oocytes injected with RNA (with GIRK1 and GIRK4 RNA)
Experimental: (§1) The ability of each Gαi-coupled mGlu or mGluR-CaR chimeric receptors to function was determined in Xenopus oocytes, with co-injection of the G-protein inward rectifying potassium channel subunits, GIRK 1 and GIRK4 (Kubo et al 1993 Nature 364: 802). Individual oocytes were injected with a mixture containing 5 ng receptor, 1.5 ng GIRK1 and 1.5 ng GIRK4. […] Further details can be found in Saugstad, et al., J. Neurosci. 1996 16:5979-5985. Application of glutamate evoked inward potassium currents in oocytes expressing both the chimeric receptors and the potassium channels, but not in oocytes expressing only the receptor or only the channel subunits.

CaSPhmGluR6(27-35) = molecular target: T2, CaSPhmGluR6(27-35) (Homo sapiens, UniProt O15303, Q59P); experiment: as above; format: cell-based; conditions: 100 uM L-glutamate; Xenopus oocytes; FIG. 7
T2 construct: CaR signal peptide (first 27 amino acids of CaR) (N); expressed in transfected cells; host or cells: Xenopus laevis oocytes injected with RNA
Experimental: as §1

CaSPhmGluR7(27-45) = molecular target: T3, CaSPhmGluR7(27-45) (Homo sapiens, UniProt Q14831); experiment: as above; format: cell-based; conditions: 100 uM L-glutamate; Xenopus oocytes; FIG. 4
T3 construct: human CaR signal peptide (first 27 amino acids of CaR), replacing mGluR7 residues 1-44 (N); expressed in transfected cells; host or cells: Xenopus laevis oocytes injected with in vitro transcribed RNA (co-injected with GIRK1 and GIRK4 RNA)
Experimental: as §1

CaSPhmGluR2(27-19) = molecular target: T4, CaSPhmGluR2(27-19) (Homo sapiens, UniProt Q14416); experiment: as above; format: cell-based; conditions: 100 uM L-glutamate; Xenopus oocytes; FIG. 6
T4 construct: CaR signal peptide (first 27 amino acids of CaR) (N); expressed in transfected cells; host or cells: Xenopus laevis oocytes injected with RNA (with GIRK1 and GIRK4 RNA)

CaSPhmGluR5(27-22) = molecular target: T5, CaSPhmGluR5(27-22) (Homo sapiens, UniProt P41594); experiment: oocyte assay for PLC-coupled receptors (voltage clamp, Cl- current); format: cell-based; conditions: 100 uM L-glutamate; Xenopus oocytes; FIG. 8
T5 construct: CaR signal peptide (first 27 amino acids of CaR) (N); expressed in transfected cells; host or cells: Xenopus laevis oocytes injected with in vitro transcribed RNA

human CaR = molecular target: T6, human CaR (Homo sapiens, UniProt P41180, R990G); experiment: PLC-coupled oocyte assay; format: cell-based; conditions: Xenopus oocytes; FIG. 10B
T6 construct: expressed in transfected cells; host or cells: Xenopus laevis oocytes injected with human CaR RNA (plasmid phPCaR4.0)
T6 sequence (P41180 20-1078 R990G): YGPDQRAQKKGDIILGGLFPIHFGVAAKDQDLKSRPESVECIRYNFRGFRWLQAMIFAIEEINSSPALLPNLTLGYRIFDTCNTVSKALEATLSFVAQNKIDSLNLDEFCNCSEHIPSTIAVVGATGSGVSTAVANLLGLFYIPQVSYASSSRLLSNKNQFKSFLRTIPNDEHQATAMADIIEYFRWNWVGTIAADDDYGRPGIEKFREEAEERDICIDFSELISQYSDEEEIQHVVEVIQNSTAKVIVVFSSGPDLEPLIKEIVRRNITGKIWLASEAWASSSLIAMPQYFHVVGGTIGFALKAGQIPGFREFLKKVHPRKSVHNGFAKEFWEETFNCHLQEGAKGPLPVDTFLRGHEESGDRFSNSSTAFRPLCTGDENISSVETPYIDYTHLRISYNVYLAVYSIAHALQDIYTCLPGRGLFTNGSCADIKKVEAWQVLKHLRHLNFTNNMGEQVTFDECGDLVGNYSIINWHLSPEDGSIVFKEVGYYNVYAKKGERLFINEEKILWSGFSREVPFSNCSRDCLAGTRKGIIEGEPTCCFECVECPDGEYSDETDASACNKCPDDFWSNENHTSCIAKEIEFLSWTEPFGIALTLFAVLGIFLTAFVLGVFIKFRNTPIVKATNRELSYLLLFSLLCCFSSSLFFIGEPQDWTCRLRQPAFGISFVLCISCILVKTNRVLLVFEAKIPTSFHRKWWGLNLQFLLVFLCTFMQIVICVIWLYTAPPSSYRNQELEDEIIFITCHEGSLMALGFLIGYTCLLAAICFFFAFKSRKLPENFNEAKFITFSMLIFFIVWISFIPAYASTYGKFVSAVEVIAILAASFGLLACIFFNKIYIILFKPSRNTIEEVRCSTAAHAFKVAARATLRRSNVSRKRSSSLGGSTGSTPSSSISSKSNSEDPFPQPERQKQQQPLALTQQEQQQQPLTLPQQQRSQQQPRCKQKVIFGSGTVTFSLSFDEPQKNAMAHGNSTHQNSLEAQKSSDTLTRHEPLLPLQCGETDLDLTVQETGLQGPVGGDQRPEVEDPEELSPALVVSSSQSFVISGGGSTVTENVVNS

pmGluR1/CaR chimera = pmGluR1/CaR chimera (Rattus norvegicus, UniProt P23385); conditions: Xenopus oocytes; compared with rat mGluR1; FIG. 9
rat mGluR1 = rat mGluR1 (Rattus norvegicus, UniProt P23385); conditions: Xenopus oocytes; FIG. 9 and FIG. 10A

T1 sequence (Q14832 with tags, fused parts or gaps): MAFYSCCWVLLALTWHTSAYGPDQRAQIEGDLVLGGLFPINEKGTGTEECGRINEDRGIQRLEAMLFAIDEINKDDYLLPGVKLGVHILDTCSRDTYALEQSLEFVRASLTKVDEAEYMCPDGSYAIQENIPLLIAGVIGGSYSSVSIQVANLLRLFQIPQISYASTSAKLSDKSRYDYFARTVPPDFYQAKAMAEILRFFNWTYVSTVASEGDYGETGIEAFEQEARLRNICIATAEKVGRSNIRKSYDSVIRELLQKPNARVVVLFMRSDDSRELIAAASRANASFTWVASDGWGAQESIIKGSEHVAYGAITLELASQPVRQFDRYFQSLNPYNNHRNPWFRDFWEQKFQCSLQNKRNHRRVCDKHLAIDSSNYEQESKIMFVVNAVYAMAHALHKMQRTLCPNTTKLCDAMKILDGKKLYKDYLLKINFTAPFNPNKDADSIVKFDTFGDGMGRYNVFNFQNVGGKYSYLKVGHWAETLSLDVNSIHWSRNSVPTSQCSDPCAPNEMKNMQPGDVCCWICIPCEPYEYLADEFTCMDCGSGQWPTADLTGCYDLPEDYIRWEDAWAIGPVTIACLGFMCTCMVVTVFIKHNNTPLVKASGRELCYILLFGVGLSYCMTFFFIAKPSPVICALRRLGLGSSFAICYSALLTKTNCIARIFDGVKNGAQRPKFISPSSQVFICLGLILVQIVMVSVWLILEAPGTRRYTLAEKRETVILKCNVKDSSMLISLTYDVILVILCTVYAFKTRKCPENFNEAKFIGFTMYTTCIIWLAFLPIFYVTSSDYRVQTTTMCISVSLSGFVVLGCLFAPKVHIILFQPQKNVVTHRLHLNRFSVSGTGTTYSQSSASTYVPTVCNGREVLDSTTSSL
T2 sequence (O15303 with tags, fused parts or gaps Q59P): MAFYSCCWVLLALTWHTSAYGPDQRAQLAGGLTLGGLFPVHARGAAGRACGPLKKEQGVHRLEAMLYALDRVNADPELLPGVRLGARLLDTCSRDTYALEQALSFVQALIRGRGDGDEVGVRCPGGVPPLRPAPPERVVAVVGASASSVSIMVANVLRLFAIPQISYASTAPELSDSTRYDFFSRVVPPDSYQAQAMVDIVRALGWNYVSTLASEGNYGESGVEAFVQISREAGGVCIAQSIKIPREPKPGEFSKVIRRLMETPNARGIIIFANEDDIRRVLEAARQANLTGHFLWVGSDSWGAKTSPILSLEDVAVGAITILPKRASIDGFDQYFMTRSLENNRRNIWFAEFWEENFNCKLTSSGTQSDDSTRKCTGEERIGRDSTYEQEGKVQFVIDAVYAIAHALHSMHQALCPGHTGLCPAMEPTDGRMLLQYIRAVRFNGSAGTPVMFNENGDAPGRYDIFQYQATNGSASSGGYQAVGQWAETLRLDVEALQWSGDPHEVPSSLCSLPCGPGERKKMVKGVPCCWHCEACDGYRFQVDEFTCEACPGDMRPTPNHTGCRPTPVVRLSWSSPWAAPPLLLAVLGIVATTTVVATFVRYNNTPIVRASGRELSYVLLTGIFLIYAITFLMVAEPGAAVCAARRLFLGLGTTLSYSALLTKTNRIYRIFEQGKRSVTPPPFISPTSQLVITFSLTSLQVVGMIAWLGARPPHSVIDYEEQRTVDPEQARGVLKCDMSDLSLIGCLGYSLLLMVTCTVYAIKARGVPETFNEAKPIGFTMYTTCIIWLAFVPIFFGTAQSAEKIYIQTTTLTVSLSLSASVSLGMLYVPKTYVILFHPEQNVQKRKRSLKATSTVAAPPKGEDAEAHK
pmGluR1/CaR chimera, sequence (P23385 with tags, fused parts or gaps): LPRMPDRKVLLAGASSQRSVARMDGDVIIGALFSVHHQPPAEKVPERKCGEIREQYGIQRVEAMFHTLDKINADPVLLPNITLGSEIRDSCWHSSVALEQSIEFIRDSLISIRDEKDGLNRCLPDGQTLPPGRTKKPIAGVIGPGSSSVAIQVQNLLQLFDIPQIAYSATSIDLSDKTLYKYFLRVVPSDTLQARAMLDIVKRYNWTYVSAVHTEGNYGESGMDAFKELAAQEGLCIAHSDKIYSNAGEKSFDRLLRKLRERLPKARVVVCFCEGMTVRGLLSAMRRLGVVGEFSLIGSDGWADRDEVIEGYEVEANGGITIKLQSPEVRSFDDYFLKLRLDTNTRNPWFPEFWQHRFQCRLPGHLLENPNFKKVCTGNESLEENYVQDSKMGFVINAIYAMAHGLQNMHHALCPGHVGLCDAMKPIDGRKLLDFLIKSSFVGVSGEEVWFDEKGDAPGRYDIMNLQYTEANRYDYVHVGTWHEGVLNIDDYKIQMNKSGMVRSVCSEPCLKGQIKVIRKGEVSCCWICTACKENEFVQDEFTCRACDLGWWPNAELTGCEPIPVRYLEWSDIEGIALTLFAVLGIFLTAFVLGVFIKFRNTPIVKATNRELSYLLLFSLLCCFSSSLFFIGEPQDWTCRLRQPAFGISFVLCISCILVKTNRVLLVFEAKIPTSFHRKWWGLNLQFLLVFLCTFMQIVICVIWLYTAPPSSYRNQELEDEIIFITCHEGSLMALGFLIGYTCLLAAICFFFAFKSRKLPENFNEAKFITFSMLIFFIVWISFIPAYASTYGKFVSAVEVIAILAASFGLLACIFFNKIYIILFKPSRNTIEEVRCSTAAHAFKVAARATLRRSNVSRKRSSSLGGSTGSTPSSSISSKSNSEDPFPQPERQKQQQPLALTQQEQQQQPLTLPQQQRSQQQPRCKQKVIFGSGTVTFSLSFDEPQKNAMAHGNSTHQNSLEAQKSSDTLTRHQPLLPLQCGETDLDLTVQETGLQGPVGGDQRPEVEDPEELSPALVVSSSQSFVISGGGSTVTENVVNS
T5 sequence (P41594 with tags, fused parts or gaps): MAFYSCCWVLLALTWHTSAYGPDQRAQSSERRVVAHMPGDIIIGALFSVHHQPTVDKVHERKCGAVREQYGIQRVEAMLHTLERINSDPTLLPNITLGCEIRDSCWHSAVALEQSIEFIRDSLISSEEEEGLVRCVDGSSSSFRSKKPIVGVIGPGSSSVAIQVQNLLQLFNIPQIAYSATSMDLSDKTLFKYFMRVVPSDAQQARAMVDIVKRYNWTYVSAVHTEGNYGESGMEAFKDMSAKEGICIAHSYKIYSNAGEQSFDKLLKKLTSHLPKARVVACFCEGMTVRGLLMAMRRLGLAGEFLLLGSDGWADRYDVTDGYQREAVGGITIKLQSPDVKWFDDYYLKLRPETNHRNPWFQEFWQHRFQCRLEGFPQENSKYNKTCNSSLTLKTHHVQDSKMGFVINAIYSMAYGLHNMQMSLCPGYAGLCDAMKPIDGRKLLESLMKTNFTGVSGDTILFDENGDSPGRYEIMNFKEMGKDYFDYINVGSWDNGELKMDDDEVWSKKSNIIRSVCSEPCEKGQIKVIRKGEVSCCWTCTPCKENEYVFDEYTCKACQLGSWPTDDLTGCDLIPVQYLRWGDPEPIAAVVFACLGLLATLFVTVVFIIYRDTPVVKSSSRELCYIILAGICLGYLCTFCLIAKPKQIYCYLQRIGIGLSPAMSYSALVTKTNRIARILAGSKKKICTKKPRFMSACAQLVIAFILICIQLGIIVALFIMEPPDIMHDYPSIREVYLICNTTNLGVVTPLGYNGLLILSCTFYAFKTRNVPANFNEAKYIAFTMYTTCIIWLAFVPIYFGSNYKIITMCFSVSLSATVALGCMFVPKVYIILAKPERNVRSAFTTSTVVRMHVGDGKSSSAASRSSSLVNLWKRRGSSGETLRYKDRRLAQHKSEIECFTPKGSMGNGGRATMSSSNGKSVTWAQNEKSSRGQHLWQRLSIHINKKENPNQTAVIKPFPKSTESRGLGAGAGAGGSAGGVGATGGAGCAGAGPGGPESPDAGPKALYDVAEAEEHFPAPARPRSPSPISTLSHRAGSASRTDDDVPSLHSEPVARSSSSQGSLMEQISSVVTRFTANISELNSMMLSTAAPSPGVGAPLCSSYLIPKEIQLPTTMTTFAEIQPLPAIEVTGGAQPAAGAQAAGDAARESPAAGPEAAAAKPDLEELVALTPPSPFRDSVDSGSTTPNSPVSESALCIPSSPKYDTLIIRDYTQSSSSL
T3 sequence (Q14831 with tags, fused parts or gaps): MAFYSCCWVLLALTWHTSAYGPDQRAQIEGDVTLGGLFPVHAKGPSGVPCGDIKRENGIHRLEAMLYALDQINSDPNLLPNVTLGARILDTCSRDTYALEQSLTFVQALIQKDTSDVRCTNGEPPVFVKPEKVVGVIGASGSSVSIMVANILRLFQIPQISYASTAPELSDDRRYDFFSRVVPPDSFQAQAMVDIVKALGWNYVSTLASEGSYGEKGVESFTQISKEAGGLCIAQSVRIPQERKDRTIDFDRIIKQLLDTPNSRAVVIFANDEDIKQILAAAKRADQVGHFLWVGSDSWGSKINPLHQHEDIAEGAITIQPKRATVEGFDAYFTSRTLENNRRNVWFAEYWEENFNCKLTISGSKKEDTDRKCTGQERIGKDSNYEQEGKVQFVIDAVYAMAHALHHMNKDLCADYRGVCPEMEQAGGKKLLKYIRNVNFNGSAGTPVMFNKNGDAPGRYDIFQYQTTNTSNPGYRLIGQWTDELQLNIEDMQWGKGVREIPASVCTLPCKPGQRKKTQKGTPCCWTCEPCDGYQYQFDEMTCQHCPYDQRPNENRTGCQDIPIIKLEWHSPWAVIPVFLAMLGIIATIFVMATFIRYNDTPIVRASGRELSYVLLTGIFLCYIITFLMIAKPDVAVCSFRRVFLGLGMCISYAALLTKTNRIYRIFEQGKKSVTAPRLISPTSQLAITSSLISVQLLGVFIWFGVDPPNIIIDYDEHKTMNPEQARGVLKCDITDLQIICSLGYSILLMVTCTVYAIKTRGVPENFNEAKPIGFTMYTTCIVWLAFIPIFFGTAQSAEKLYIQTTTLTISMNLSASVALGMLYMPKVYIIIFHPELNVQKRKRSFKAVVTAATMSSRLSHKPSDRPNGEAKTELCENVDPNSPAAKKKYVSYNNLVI

| Structure (SMILES) | activation of the chimeric receptor (CaSPhmGluR3(27-33)) | activation of the chimeric receptor (CaSPhmGluR6(27-35)) | activation of the chimeric receptor (CaSPhmGluR7(27-45)) | activation of the receptor (CaSPhmGluR2(27-19)) | activation of the chimeric receptor (CaSPhmGluR5(27-22)) | Cl- current in oocytes injected with human CaR RNA (human CaR) | receptor response (Cl- currents on release of intracellular Ca2+) (pmGluR1/CaR chimera) | receptor response (Cl- currents on release of intracellular Ca2+) (rat mGluR1) |
| --- | --- | --- | --- | --- | --- | --- | --- | --- |
| N[C@@H](CCC(=O)O)C(=O)O [L-glutamate] | activation of the chimeric receptor was seen | Activation of the chimeric receptor | robust activation | Activation of the receptor | Activation of the chimeric receptor | elicits oscillatory increases in Cl— current |  |  |
| N[C@@H](Cn1oc(=O)[nH]c1=O)C(=O)O [quisqualate] |  |  |  |  |  |  | respond comparably | respond comparably |
